Reference: patent US8022102B2, “Unsaturated tetracyclic tetrahydrofuran derivatives” (Janssen Pharmaceutica, NV, priority 2004, dated 2011)
pIC50: −log10 of the molar value. Where two headings read alike, the source gives them in different places.

How the values were obtained:
[1] = molecular target: T1, human cloned 5-HT2A receptor (Homo sapiens, UniProt P28223); test: In vitro binding affinity for 5-HT2A receptor (radioligand binding); settings: human cloned 5-HT2A receptor, radioligand binding; for IC50: read-out: h-5HT2A (converted)
T1 construct: expressed in transfected cells; host or cells: L929 cells
Description: During the incubation, the radioligands bind to the receptor. When equilibrium of binding is reached, the receptor bound radioactivity is separated from the non-bound radioactivity, and the receptor bound activity is counted. The interaction of the test compounds with the receptors is assessed in competition binding experiments. Various concentrations of the test compound are added to the incubation mixture containing the tissue preparation and the radioligand. Binding of the radioligand will be inhibited by the test compound in proportion to its binding affinity and its concentration. The affinities of the compounds for the 5-HT2 receptors were measured by means of radioligand binding studies conducted with: (a) human cloned 5-HT2A receptor, expressed in L929 cells using [^125I]R91150 as radioligand and (b) human cloned 5-HT2C receptor, expressed in CHO cells using [^3H]mesulergine as radioligand.

[2] = molecular target: T2, human cloned 5-HT2C receptor (Homo sapiens, UniProt P28335); test: In vitro binding affinity for 5-HT2C receptor (radioligand binding); settings: human cloned 5-HT2C receptor, radioligand binding; for IC50: read-out: h-5HT2C (converted)
T2 construct: expressed in transfected cells; host or cells: CHO cells
T2 sequence (P28335 33-458): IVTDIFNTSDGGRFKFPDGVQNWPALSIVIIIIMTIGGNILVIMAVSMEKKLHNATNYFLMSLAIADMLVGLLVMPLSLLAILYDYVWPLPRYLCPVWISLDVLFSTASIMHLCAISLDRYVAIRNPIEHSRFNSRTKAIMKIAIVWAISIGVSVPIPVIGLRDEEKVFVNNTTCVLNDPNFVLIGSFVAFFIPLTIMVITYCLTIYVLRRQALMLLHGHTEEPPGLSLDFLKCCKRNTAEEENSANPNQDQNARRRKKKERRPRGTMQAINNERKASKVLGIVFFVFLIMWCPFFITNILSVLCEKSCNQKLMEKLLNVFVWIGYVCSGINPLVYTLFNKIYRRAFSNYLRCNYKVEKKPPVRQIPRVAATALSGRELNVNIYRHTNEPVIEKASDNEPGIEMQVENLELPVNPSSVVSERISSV
Description: During the incubation, the radioligands bind to the receptor. When equilibrium of binding is reached, the receptor bound radioactivity is separated from the non-bound radioactivity, and the receptor bound activity is counted. The interaction of the test compounds with the receptors is assessed in competition binding experiments. Various concentrations of the test compound are added to the incubation mixture containing the tissue preparation and the radioligand. Binding of the radioligand will be inhibited by the test compound in proportion to its binding affinity and its concentration.

[3] = molecular target: T3, human Dopamine D2L receptor (Homo sapiens, UniProt P14416); test: In vitro binding affinity for human D2L receptor ([3H]Spiperone); settings: human D2L receptor-transfected CHO cell membranes, [3H]Spiperone; read-out: h-D2L (converted)
T3 construct: expressed in transfected cells; host or cells: CHO cells
Description: Frozen membranes of human Dopamine D2L receptor-transfected CHO cells were thawed, briefly homogenised using an Ultra-Turrax T25 homogeniser and diluted in Tris-HCl assay buffer containing NaCl, CaCl2, MgCl2, KCl (50, 120, 2, 1, and 5 mM respectively, adjusted to pH 7.7 with HCl) to an appropriate protein concentration optimised for specific and non-specific binding. Radioligand [^3H]Spiperone (NEN, specific activity ˜70 Ci/mmol) was diluted in assay buffer at a concentration of 2 nmol/L. Prepared radioligand (50 μl), along with 50 μl of either the 10% DMSO control, Butaclamol (10^−6 mol/l final concentration), or compound of interest, was then incubated (30 min, 37° C.) with 400 μl of the prepared membrane solution. Membrane-bound activity was filtered through a Packard Filtermate harvester onto GF/B Unifilterplates and washed with ice-cold Tris-HCl buffer (50 mM; pH 7.7; 6×0.5 ml). Filters were allowed to dry before adding scintillation fluid and counting in a Topcount scintillation counter. Percentage specific bound and competition binding curves were calculated using S-Plus software (Insightful).

T3 sequence (P14416 whole entry): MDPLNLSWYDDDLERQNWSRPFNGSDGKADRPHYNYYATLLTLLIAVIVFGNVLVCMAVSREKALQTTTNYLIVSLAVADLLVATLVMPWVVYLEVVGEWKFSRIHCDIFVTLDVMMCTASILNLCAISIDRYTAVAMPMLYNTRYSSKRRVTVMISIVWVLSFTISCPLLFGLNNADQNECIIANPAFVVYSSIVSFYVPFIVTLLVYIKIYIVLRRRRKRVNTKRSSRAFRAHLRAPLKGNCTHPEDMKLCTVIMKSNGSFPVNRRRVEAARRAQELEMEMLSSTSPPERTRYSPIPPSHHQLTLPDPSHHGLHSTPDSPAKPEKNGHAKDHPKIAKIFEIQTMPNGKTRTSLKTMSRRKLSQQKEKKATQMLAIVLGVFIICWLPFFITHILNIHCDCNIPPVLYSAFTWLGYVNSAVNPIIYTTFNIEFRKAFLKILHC
T1 sequence (P28223 whole entry): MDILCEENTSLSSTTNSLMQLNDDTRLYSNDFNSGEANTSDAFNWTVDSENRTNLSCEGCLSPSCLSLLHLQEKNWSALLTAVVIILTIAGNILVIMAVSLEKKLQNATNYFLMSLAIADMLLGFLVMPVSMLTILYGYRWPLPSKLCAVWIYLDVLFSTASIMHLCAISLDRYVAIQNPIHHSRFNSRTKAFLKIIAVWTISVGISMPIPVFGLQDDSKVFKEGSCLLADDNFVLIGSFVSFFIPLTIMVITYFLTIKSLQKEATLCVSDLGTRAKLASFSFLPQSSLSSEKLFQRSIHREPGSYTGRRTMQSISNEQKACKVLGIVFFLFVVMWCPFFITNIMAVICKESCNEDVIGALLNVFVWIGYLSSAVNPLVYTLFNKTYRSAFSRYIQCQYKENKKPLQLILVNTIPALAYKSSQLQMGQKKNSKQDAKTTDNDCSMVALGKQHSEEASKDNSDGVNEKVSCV

Row | SMILES | IC50 [1] [nM] | IC50 [2] [nM] | IC50 [3] [nM] | pIC50 ([1]; h-5HT2A) | pIC50 ([2]; h-5HT2C)
1 | CN(C)C(=O)N1CCN(CC2CC3=C(O2)c2cc(F)ccc2Oc2ccccc23)CC1 (stereo not shown) [Compound 76] | 50.1 | 158 | 251 |  | 
2 | CNCC1CC2=C(O1)c1cc(F)ccc1Sc1ccccc12 (single isomer, unassigned) [Compound 14] |  | 0.2 |  |  | 
3 | OCCNCC1CC2=C(O1)c1cc(F)ccc1Cc1ccccc12 (stereo not shown) [Compound 19] | 1.58 | 1 | 63.1 |  | 
4 | CN(C)CC1CC2=C(O1)c1ccccc1Cc1ccccc12 (stereo not shown) [Compound 22] | 3.98 | 3.98 |  |  | 
5 | CN(C)C(=O)N1CCN(CC2CC3=C(O2)c2cc(F)ccc2Cc2ccccc23)CC1 (stereo not shown) [Compound 75] | 50.1 | 316 | 794 |  | 
6 | CCCCc1ccc2c(c1)C1=C(CC(CNC)O1)c1ccccc1C2 (stereo not shown) [Compound 6] | 31.6 |  | 251 |  | 
7 | OCCN1CCN(CC2CC3=C(O2)c2cc(F)ccc2Sc2ccccc23)CC1 (stereo not shown) [Compound 42] | 3.16 | 10 | 5.01 |  | 
8 | CNCC1CC2=C(O1)c1cc(F)ccc1Sc1ccccc12 (single isomer, unassigned) [Compound 13] | 3.16 | 3.98 | 200 |  | 
9 | CCOC(=O)N1CCN(CC2CC3=C(O2)c2cc(F)ccc2Oc2ccccc23)CC1 (stereo not shown) [Compound 62] | 79.4 | 200 | 631 |  | 
10 | OC1CCCN(CC2CC3=C(O2)c2cc(F)ccc2Cc2ccccc23)C1 (stereo not shown) [Compound 37] | 1 | 2 | 20 |  | 
11 | CCNCC1CC2=C(O1)c1cc(F)ccc1Sc1ccccc12 (stereo not shown) [Compound 18] | 0.398 | 1.26 | 15.8 |  | 
12 | O=S(=O)(Cc1ccccc1)N1CCN(CC2CC3=C(O2)c2cc(F)ccc2Oc2ccccc23)CC1 (stereo not shown) [Compound 52] | 100 | 200 | 158 |  | 
13 | OC1CCN(CC2CC3=C(O2)c2cc(F)ccc2Sc2ccccc23)C1 (stereo not shown) [Compound 34] | 0.126 |  | 10 |  | 
14 | CS(=O)(=O)N1CCN(CC2CC3=C(O2)c2cc(F)ccc2Oc2ccccc23)CC1 (stereo not shown) [Compound 45] | 79.4 | 100 | 794 |  | 
15 | CNCC1CC2=C(O1)c1cc(Br)ccc1Cc1ccccc12 (stereo not shown) [Compound 5] | 0.794 | 0.794 | 31.6 |  | 
16 | OCCN1CCN(CC2CC3=C(O2)c2cc(F)ccc2Cc2ccccc23)CC1 (stereo not shown) [Compound 41] | 5.01 | 12.6 | 10 |  | 
17 | CN(C)CC1CC2=C(O1)c1ccccc1Oc1ccccc12 (stereo not shown) [Compound 25] | 63.1 | 20 | 1260 |  | 
18 | CN(C)CC1CC2=C(O1)c1cc(F)ccc1Oc1ccccc12 (stereo not shown) [Compound 26] | 10 | 7.94 |  |  | 
19 | CN(C)CC1CC2=C(O1)c1ccccc1Cc1ccccc12 (single isomer, unassigned) [Compound 24] |  | 1.26 | 158 |  | 
20 | O=S(=O)(Cc1ccccc1)N1CCN(CC2CC3=C(O2)c2cc(F)ccc2Cc2ccccc23)CC1 (stereo not shown) [Compound 51] | 79.4 | 200 | 100 |  | 
21 | CN(CCO)CC1CC2=C(O1)c1cc(F)ccc1Cc1ccccc12 (stereo not shown) [Compound 31] | 2.51 | 1.58 |  |  | 
22 | CCOC(=O)CNC(=O)N1CCN(CC2CC3=C(O2)c2cc(F)ccc2Oc2ccccc23)CC1 (stereo not shown) [Compound 82] | 39.8 | 158 | 1580 |  | 
23 | CN(C[C@H]1CC2=C(O1)c1cc(F)ccc1Cc1ccccc12)C(=O)Oc1ccccc1 [Compound 111] |  |  |  | 6.70 | 8.40
24 | COc1cc2c(cc1OC)CN(CC1CC3=C(O1)c1cc(F)ccc1Cc1ccccc13)CC2 (stereo not shown) [Compound 40] | 6.31 | 2.51 | 50.1 |  | 
25 | NCC1CC2=C(O1)c1cc(F)ccc1Cc1ccccc12 (stereo not shown) [Compound 1] | 1.58 | 0.794 |  |  | 
26 | CN(C)CC1CC2=C(O1)c1ccccc1Cc1ccccc12 (single isomer, unassigned) [Compound 23] |  | 15.8 | 1580 |  | 
27 | CN(CCO)CC1CC2=C(O1)c1cc(F)ccc1Oc1ccccc12 (stereo not shown) [Compound 32] | 15.8 | 25.1 |  |  | 
28 | CN(C)CC1CC2=C(O1)c1cc(Br)ccc1Oc1ccccc12 (stereo not shown) [Compound 27] | 7.94 | 2.51 |  |  | 
29 | CN(C)CC1CC2=C(O1)c1cc(F)ccc1Sc1ccccc12 (stereo not shown) [Compound 28] | 0.398 |  | 12.6 |  | 

Further lines, with some results ahead:

Row | IC50 [1] [nM] | IC50 [2] [nM] | IC50 [3] [nM] | SMILES | pIC50 ([1]; h-5HT2A) | pIC50 ([2]; h-5HT2C)
30 | 3.98 | 20 | 316 | O=C(C1CC1)N1CCN(CC2CC3=C(O2)c2cc(F)ccc2Cc2ccccc23)CC1 (stereo not shown) [Compound 57] |  | 
31 | 31.6 | 100 |  | CC(=O)N1CCN(CC2CC3=C(O2)c2cc(F)ccc2Oc2ccccc23)CC1 (stereo not shown) [Compound 54] |  | 
32 | 2 | 3.16 | 39.8 | COc1ccc(NC(=O)N2CCN(CC3CC4=C(O3)c3cc(F)ccc3Cc3ccccc34)CC2)cc1 (stereo not shown) [Compound 89] |  | 
33 | 39.8 |  | 1580 | O=C(NC1CCCCC1)N1CCN(CC2CC3=C(O2)c2cc(F)ccc2Cc2ccccc23)CC1 (stereo not shown) [Compound 79] |  | 
34 | 2 | 5.01 | 316 | COC(=O)CC(=O)N1CCN(CC2CC3=C(O2)c2cc(F)ccc2Cc2ccccc23)CC1 (stereo not shown) [Compound 59] |  | 
35 | 3.98 | 7.94 | 200 | CC(=O)N1CCN(CC2CC3=C(O2)c2cc(F)ccc2Cc2ccccc23)CC1 (stereo not shown) [Compound 53] |  | 
36 | 31.6 | 50.1 | 1000 | O=C(Nc1ccccc1)N1CCN(CC2CC3=C(O2)c2cc(F)ccc2Oc2ccccc23)CC1 (stereo not shown) [Compound 84] |  | 
37 | 12.6 | 6.31 | 3160 | CNC(=N)CN(C)CC1CC2=C(O1)c1cc(F)ccc1Cc1ccccc12 (stereo not shown) [Compound 138] |  | 
38 | 10 | 10 | 251 | O=C(Nc1ccccc1)N1CCN(CC2CC3=C(O2)c2cc(F)ccc2Cc2ccccc23)CC1 (stereo not shown) [Compound 83] |  | 
39 | 3.16 | 1.58 | 794 | CN(CC(=O)c1ccccc1)C[C@H]1CC2=C(O1)c1cc(F)ccc1Cc1ccccc12 [Compound 114] |  | 
40 | 10 | 3.98 | 1260 | CN(CC(N)=O)C[C@H]1CC2=C(O1)c1cc(F)ccc1Cc1ccccc12 [Compound 115] |  | 
41 | 2 | 2 | 50.1 | CNC(=O)/C=C/CN(C)C[C@H]1CC2=C(O1)c1cc(F)ccc1Cc1ccccc12 [Compound 123] |  | 
42 | 39.8 |  | > 10000 | CN(C[C@H]1CC2=C(O1)c1cc(F)ccc1Cc1ccccc12)C1CC(=O)NC1=O (mixture of isomers) [Compound 124] |  | 
43 | 3.16 | 2.51 | 1260 | CN(Cc1nnn[nH]1)C[C@H]1CC2=C(O1)c1cc(F)ccc1Cc1ccccc12 [Compound 125] |  | 
44 | 3.98 | 10 | 316 | CCCC(=O)N1CCN(CC2CC3=C(O2)c2cc(F)ccc2Cc2ccccc23)CC1 (stereo not shown) [Compound 55] |  | 
45 | 79.4 | 50.1 |  | CCCCNC(=O)N1CCN(CC2CC3=C(O2)c2cc(F)ccc2Oc2ccccc23)CC1 (stereo not shown) [Compound 78] |  | 
46 | 3.98 |  | 126 | CCCCNC(=O)N1CCN(CC2CC3=C(O2)c2cc(F)ccc2Cc2ccccc23)CC1 (stereo not shown) [Compound 77] |  | 
47 | 3.16 |  | 100 | O=C(Nc1ccc(F)cc1)N1CCN(CC2CC3=C(O2)c2cc(F)ccc2Cc2ccccc23)CC1 (stereo not shown) [Compound 85] |  | 
